Measurements reported in ChEMBL document CHEMBL1955864, “N-1 and C-3 substituted indole Schiff bases as selective COX-2 inhibitors: synthesis and biological evaluation” (Bioorg Med Chem Lett, 2012).
pIC50: −log10 of the molar value.

What follows are molecules tested against T1, Prostaglandin G/H synthase 1 (Ovis aries, UniProt P05979) (assay: Inhibition of ovine COX-1 by enzyme immuno assay).
T1 sequence (P05979 whole entry): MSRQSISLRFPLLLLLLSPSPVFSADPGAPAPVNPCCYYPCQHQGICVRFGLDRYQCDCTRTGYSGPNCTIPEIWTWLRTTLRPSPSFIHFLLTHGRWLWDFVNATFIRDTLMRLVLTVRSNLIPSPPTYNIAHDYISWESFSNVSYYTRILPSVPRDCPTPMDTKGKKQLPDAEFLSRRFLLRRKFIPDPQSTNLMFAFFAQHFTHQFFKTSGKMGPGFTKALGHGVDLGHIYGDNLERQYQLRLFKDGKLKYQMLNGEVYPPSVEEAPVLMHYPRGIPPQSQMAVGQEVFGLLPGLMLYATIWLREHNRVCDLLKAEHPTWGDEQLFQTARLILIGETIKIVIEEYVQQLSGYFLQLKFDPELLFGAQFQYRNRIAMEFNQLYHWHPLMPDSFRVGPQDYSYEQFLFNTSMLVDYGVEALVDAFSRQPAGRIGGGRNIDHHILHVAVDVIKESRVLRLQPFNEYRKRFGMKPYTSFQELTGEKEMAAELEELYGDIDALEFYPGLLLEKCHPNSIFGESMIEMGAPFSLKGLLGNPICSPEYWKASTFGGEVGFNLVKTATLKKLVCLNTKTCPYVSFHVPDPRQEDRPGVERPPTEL

Structure (SMILES)	pIC50
Fc1ccc(/N=C/c2c[nH]c3ccccc23)cc1	4.16
Fc1ccc(/N=C/c2cn(Cc3ccccc3)c3ccccc23)cc1	4.04
Cc1ccc(/N=C/c2cn(Cc3ccccc3)c3ccccc23)cc1	4.09
FC(F)(F)c1ccc(/N=C/c2cn(Cc3ccccc3)c3ccccc23)cc1	4.02
O=C(c1ccccc1)n1cc(/C=N/c2ccc(F)cc2)c2ccccc21	< 4.00
Cc1ccc(/N=C/c2cn(C(=O)c3ccccc3)c3ccccc23)cc1	4.10
O=C(c1ccccc1)n1cc(/C=N/c2ccc(Cl)cc2)c2ccccc21	4.06

Further lines, results first:

pIC50	Structure (SMILES)
4.21	Cc1ccc(/N=C/c2c[nH]c3ccccc23)cc1
4.11	FC(F)(F)c1ccc(/N=C/c2c[nH]c3ccccc23)cc1
< 4.00	O=C(c1ccccc1)n1cc(/C=N/c2ccc(C(F)(F)F)cc2)c2ccccc21
